Publication PMC4412152, “Human olfactory receptor responses to odorants” (Scientific Data, 2015)
Numbering of substitutions follows the chain as printed. Values belong to the molecule of their own block, whether it stands above or below them.

Legend:
Test in all cases: CRE-luciferase cAMP reporter (Dual-Glo), Hana3A cells
Format in all cases: cell-based
OR2J3 = molecular target: T1, OR2J3 (Homo sapiens, UniProt O76001)
T1 construct: full-length ORF with N-terminal Rho tag, pCI, Hana3A cells with RTP1S; four clones with the same label
T1 sequence (O76001 1-311): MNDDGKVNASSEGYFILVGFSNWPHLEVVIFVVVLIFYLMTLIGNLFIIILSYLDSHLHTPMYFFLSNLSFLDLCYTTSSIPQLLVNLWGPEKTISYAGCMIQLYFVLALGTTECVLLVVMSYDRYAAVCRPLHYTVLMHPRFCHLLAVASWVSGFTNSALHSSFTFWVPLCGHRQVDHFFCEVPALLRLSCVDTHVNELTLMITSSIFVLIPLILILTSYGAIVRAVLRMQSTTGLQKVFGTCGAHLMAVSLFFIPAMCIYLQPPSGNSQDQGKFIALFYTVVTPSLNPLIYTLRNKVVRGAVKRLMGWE
From the text: CRE-luciferase cAMP reporter (Dual-Glo), Hana3A cells on OR2J3

OR4F17 = molecular target: T2, OR4F17 (Homo sapiens, UniProt Q8NGA8)
T2 construct: full-length ORF with N-terminal Rho tag, pCI, Hana3A cells with RTP1S
T2 sequence (Q8NGA8 1-305): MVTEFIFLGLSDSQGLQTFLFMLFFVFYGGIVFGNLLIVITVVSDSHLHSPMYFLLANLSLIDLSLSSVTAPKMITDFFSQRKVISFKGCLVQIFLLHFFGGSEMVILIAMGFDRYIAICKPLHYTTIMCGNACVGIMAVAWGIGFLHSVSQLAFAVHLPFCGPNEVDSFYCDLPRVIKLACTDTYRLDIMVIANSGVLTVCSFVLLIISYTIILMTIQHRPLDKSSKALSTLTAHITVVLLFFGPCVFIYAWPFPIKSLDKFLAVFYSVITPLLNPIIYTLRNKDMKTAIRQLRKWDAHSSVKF
From the text: CRE-luciferase cAMP reporter (Dual-Glo), Hana3A cells on OR4F17

OR2T1 [1] = molecular target: T3, OR2T1 (Homo sapiens, UniProt A0A126GWK9, I76V)
T3 construct: full-length ORF with N-terminal Rho tag, pCI, Hana3A cells with RTP1S; two clones with the same label
T3 sequence (A0A126GWK9 1-318 I76V): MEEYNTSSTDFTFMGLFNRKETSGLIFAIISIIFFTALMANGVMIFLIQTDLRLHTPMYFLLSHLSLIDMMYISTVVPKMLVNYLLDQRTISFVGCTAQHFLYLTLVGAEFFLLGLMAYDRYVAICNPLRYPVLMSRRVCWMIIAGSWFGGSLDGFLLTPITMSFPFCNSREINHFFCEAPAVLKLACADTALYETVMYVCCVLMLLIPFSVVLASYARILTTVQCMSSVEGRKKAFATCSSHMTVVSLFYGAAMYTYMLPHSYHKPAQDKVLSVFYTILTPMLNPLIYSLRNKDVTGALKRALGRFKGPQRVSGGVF
From the text: (§1) CRE-luciferase cAMP reporter (Dual-Glo), Hana3A cells on OR2T1

OR2T1 [2] = molecular target: T4, OR2T1 (Homo sapiens, UniProt A0A126GWK9)
T4 construct: full-length ORF with N-terminal Rho tag, pCI, Hana3A cells with RTP1S; two clones with the same label
T4 sequence (A0A126GWK9 1-318): T3 sequence (A0A126GWK9 1-318 I76V) with V76I
From the text: as §1

OR56A4 = molecular target: T5, OR56A4 (Homo sapiens, UniProt Q8NGH8)
T5 construct: full-length ORF with N-terminal Rho tag, pCI, Hana3A cells with RTP1S
T5 sequence (Q8NGH8 1-313): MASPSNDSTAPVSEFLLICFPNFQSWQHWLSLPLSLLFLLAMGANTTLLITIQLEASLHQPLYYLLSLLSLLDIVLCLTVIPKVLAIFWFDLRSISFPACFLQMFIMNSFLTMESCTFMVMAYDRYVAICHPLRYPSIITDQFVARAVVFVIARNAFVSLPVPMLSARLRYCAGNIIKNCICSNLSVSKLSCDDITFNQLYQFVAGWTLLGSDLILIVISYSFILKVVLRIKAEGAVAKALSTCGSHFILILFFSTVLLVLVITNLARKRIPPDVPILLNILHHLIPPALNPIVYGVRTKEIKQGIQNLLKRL
From the text: CRE-luciferase cAMP reporter (Dual-Glo), Hana3A cells on OR56A4

OR10G4 = molecular target: T6, OR10G4 (Homo sapiens, UniProt Q8NGN3, K295Q)
T6 construct: full-length ORF with N-terminal Rho tag, pCI, Hana3A cells with RTP1S; two clones with the same label
T6 sequence (Q8NGN3 1-311 K295Q): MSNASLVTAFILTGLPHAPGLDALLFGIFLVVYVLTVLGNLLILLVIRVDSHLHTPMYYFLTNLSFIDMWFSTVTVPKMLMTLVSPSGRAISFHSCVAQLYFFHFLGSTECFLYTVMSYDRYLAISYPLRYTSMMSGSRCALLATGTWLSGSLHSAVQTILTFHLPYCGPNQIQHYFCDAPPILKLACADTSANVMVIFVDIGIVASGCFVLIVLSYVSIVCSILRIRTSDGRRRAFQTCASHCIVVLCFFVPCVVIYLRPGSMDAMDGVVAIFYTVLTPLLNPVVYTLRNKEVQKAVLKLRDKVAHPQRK
From the text: CRE-luciferase cAMP reporter (Dual-Glo), Hana3A cells on OR10G4

OR8D1 = molecular target: T7, OR8D1 (Homo sapiens, UniProt Q8WZ84); conditions: agonist; rounded to whole log unit
T7 construct: full-length ORF with N-terminal Rho tag, pCI, Hana3A cells with RTP1S
T7 sequence (Q8WZ84 1-308): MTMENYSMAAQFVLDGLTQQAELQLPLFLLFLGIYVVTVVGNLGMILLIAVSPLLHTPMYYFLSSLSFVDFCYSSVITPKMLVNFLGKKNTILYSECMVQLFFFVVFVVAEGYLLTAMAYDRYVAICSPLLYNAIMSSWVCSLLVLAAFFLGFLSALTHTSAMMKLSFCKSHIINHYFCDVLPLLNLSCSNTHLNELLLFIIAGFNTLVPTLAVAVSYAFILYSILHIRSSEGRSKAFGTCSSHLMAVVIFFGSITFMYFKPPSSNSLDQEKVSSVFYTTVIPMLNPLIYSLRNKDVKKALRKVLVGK
From the text: CRE-luciferase cAMP reporter (Dual-Glo), Hana3A cells on OR8D1

Molecule: CCCCCOC(C)=O [compound 1078, n-amyl acetate]
- EC50 (OR2J3): 1 µM

Molecule: C[C@]12CCC(=O)C[C@@H]1CC[C@@H]1[C@@H]2CC[C@]2(C)C=CC[C@@H]12 [compound 1290, 5α-androst-16-en-3-one]
- EC50 (OR4F17): 1000 µM

Molecule: CCCC(=O)O [compound 1295, butyric acid]
- EC50 (OR2T1 [1]): 100 µM
- EC50 (OR2T1 [2]): 100 µM

Molecule: CC/C=C\CCO [compound 1300, cis-3-hexen-1-ol]
- EC50 (OR2J3): 10 µM

Molecule: CC(=O)OC/C=C(\C)CCC=C(C)C [compound 1316, geranyl acetate]
- EC50 (OR2J3): 1000 µM

Now from value to molecule:

- EC50 (OR56A4): 0.1 µM
Molecule: CCCCCCCCCCC=O [compound 1345, undecanal]

- EC50 (OR10G4): 10 µM
Molecule: COc1cc(C=O)ccc1O [compound 1346, vanillin]

- EC50 (OR8D1): −5 log10 M
Molecule: caramel furanone [compound 1396]
